The values that follow come from ChEMBL document CHEMBL1201862, “PubChem BioAssay data set” (2004).

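96-well plates; 48 h exposure; 5 concentrations. Endpoints by linear interpolation between flanking doses. Not reached: highest tested concentration assigned. GI50 marks 50% less growth.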 The source made the active and inactive calls. Rule as the data show it: active = GI50 up to about 1.1 µM and inactive = higher.

Common to all, as to assay: NCI anticancer screen, dose series, 48 h
For experiment [1], the system named is PC-3.
Experiment [2] has as its system RXF 393.
The subject of experiment [3] is SF-295.
In experiment [4] the test system is SK-OV-3.
Experiment [5] has as its system NCI-H460.
The subject of experiment [6] is HL-60.
In experiment [7] the test system is OVCAR-5.
The subject of experiment [8] is UO-31.
Experiment [9] concerns SF-268.
Experiment [10] deals with HOP-92.
Experiment [11] deals with T47D.
For experiment [12], the system named is LOX IMVI.
Experiment [13] concerns NCI/ADR-RES.
Experiment [14] concerns UACC-62.
Experiment [15] has as its system COLO 205.
The subject of experiment [16] is MDA-MB-435.
In experiment [17] the test system is A549.
Experiment [18] has as its system SK-MEL-5.
Experiment [19] relates to HCC 2998.
Experiment [20] relates to MDA-MB-231.

As for `COC(=O)[C@H](Cc1ccccc1)NC(=O)N1CCN(C(=O)N[C@@H](Cc2ccccc2)C(=O)OC)CCN(C(=O)N[C@@H](Cc2ccccc2)C(=O)OC)CC1`, the GI50 in [1], in [2], in experiment [3], in experiment [4], in [5] and in [6] was > 100 µM (inactive) throughout. Also, the GI50 in experiment [7], in [8], in [9], in experiment [10], in experiment [11] and in experiment [12] was > 100 µM (inactive) each time. The GI50 in experiment [13], in experiment [14], in [15], in experiment [16], in [17] and in [18] was > 100 µM (inactive) each time. Moreover, the GI50 in experiment [19] was > 100 µM (inactive).

Take `COC(=O)/C=C1/SC(/C(=C(/[O-])OC)[n+]2ccc3ccccc3c2)=NC1=O`: the GI50 in experiment [1], in experiment [2], in [3], in experiment [4], in [6] and in [7] was > 100 µM (inactive) each time. Moreover, the GI50 in experiment [8] is > 100 µM (inactive); in experiment [9], > 100 µM (inactive); in experiment [20], 21.9 µM (inactive); in experiment [11], > 100 µM (inactive); in experiment [12], > 100 µM (inactive); in [13] it was > 100 µM (inactive). Also, the GI50 in experiment [14], in experiment [15], in experiment [16], in experiment [17] and in experiment [18] was > 100 µM (inactive) in each case.

As to `O=C(Nc1ccccc1)Oc1ccc(C(=S)Nc2ccc(Br)cc2)cc1`, the GI50 is 22.6 µM (inactive) in [1]; 20.6 µM (inactive) in experiment [3]; 34.5 µM (inactive) in [4]; 16.9 µM (inactive) in experiment [5]; 8.13 µM (inactive) in [6]; 16.6 µM (inactive) in experiment [7]. Also, the GI50 in experiment [9] was 16.4 µM (inactive); in [11], 22.2 µM (inactive); in experiment [12] it was 11.9 µM (inactive); in experiment [13] it was 15.3 µM (inactive); in experiment [14], 11 µM (inactive); in experiment [15], 17.2 µM (inactive). In addition, the GI50 in experiment [16] was 16.9 µM (inactive); in experiment [18], 16 µM (inactive); in experiment [19] it was 21.6 µM (inactive).

For the molecule `O=C(Nc1ccccc1)Nn1c(-c2cccs2)nc2ccc(I)cc2c1=O`, the GI50 is 27.4 µM (inactive) in [1]; 30.4 µM (inactive) in [2]; 42.6 µM (inactive) in experiment [3]; 20.9 µM (inactive) in experiment [4]; 26.2 µM (inactive) in [5]; 1.41 µM (inactive) in experiment [6]. Also, the GI50 is 27.7 µM (inactive) in [7]; 21.2 µM (inactive) in experiment [8]; 30.4 µM (inactive) in [9]; 6.3 µM (inactive) in experiment [10]; 3.33 µM (inactive) in [11]; 19.2 µM (inactive) in experiment [12]. Moreover, the GI50 in [13] is 30.6 µM (inactive); in experiment [14] it was 28.7 µM (inactive); in experiment [15], 21.4 µM (inactive); in experiment [16], 20.1 µM (inactive); in experiment [17] it was 19.2 µM (inactive); in experiment [18], 17.1 µM (inactive). Further, in experiment [19], the GI50 is 25.8 µM (inactive).

For `O=C1CCCCC1CN1CCCCC1` (stereo not given), the GI50 in experiment [1], in experiment [2], in experiment [3], in experiment [4], in [5] and in experiment [6] was > 100 µM (inactive) in each case. The GI50 in [7], in [8], in experiment [9], in experiment [20], in experiment [10] and in experiment [12] was > 100 µM (inactive) each time. For the same molecule, the GI50 in experiment [13], in experiment [14], in experiment [15], in experiment [16], in experiment [17] and in experiment [18] was > 100 µM (inactive) in each case. In addition, in [19], the GI50 is > 100 µM (inactive).

`COc1ccc(N2C(=O)C3c4[nH]c5cc(Cl)ccc5c4C4CCC(C(C)(C)C)CC4C3C2=O)cc1` (stereo not given): the GI50 in experiment [1] was 29.2 µM (inactive); in experiment [2], > 100 µM (inactive); in [3] it was > 100 µM (inactive); in experiment [4], > 100 µM (inactive); in experiment [5], 35.9 µM (inactive); in experiment [6] it was 26.9 µM (inactive). In addition, the GI50 in [8] was 70.5 µM (inactive); in [9], > 100 µM (inactive); in experiment [20], > 100 µM (inactive); in [11] it was 66.4 µM (inactive); in experiment [13], > 100 µM (inactive); in experiment [14] it was > 100 µM (inactive). Further, the GI50 was > 100 µM (inactive) in experiment [15]; > 100 µM (inactive) in experiment [16]; 60.7 µM (inactive) in [17]; > 100 µM (inactive) in experiment [18]; 44 µM (inactive) in experiment [19].

On to `COc1cc(C2OC(N)=C(C#N)C3=C2C(C)CCC3)cc(OC)c1OC` (stereo not given), for which the GI50 in experiment [1] is 81.5 µM (inactive); in experiment [2] it was 21.9 µM (inactive); in experiment [3], 28.9 µM (inactive); in [4] it was 80.7 µM (inactive); in experiment [6], > 100 µM (inactive); in experiment [7], > 100 µM (inactive). The GI50 in experiment [8] is > 100 µM (inactive); in experiment [9], > 100 µM (inactive); in experiment [20] it was 30.3 µM (inactive); in [11] it was 2.03 µM (inactive); in experiment [12], > 100 µM (inactive); in experiment [13], > 100 µM (inactive). Also, the GI50 in experiment [14], in [15], in [16] and in experiment [18] was > 100 µM (inactive) in each case.

Take `COc1cc(C(=O)C/C(CCC(=O)Nc2ccccc2[N+](=O)[O-])=N\NC(N)=O)ccc1O`: the GI50 in [2], in experiment [3], in experiment [4], in [5], in experiment [6] and in experiment [7] was > 100 µM (inactive) each time. The GI50 in experiment [8], in [9], in experiment [10], in experiment [12], in experiment [14] and in [15] was > 100 µM (inactive) in each case. Further, the GI50 in experiment [17], in [18] and in experiment [19] was > 100 µM (inactive) each time.

Turning to `Cc1ccc(C)c(NC(=O)C(=O)CC(=O)c2cccc3ccccc23)c1`, the GI50 in experiment [2], in experiment [3], in experiment [4], in [5], in experiment [6] and in [7] was > 100 µM (inactive) in each case. In addition, the GI50 in experiment [8], in experiment [9], in experiment [10], in experiment [12], in [14] and in experiment [15] was > 100 µM (inactive) each time. In addition, the GI50 in [17], in [18] and in experiment [19] was > 100 µM (inactive) each time.

Regarding `COc1cc(/C=C/C(=O)c2sc(Nc3ccccc3)nc2C)ccc1O`, the GI50 was 51.9 µM (inactive) in experiment [2]; 38.2 µM (inactive) in experiment [3]; > 100 µM (inactive) in [4]; > 100 µM (inactive) in experiment [5]; 44.2 µM (inactive) in experiment [6]; > 100 µM (inactive) in [7]. Besides, the GI50 in experiment [8] was 43.6 µM (inactive); in experiment [9], 49.2 µM (inactive); in experiment [10], 35.6 µM (inactive); in experiment [12], 48.5 µM (inactive); in experiment [14], 82.8 µM (inactive); in [15], > 100 µM (inactive). The GI50 was 71.8 µM (inactive) in experiment [17], 38.4 µM (inactive) in [18] and > 100 µM (inactive) in experiment [19].

Regarding `CCOC(=O)N[C@H]1CCc2cc(OC)c(OC)c(OC)c2-c2ccc(SC)c(=O)cc21`, the GI50 was < 0.01 µM (active) in experiment [1]; < 0.01 µM (active) in experiment [2]; < 0.01 µM (active) in experiment [3]; < 0.01 µM (active) in [5]; < 0.01 µM (active) in [6]; 0.317 µM (active) in experiment [7]. In addition, the GI50 in experiment [8] was < 0.0117 µM (active); in [9], < 0.01 µM (active); in experiment [10], < 0.01 µM (active); in experiment [11] it was > 54.6 µM (inactive); in experiment [12] it was < 0.01 µM (active); in experiment [13] it was 0.0228 µM (active). In addition, the GI50 in [14], in [15], in [16], in experiment [17], in experiment [18] and in experiment [19] was < 0.01 µM (active) each time.
